Among the data in BindingDB's records for doi:10.1021/jm060666p (University of Massachusetts Medical School, 2006) are Ki values, retold here.

Usually Ki stands for a measure of affinity in units of concentration, obtained from inhibition or displacement.

This assay concerns the target T1, Dimer of Gag-Pol polyprotein [491-589,Q496K] (Human immunodeficiency virus 1, UniProt P03369, Q496K).
T1 construct: 491-589
Nature of the assay: Enzyme Inhibition Assay. The method, then:
HIV-1 protease inhibitor activities were determined by the fluorescence resonance energy transfer (FRET) method. The energy transfer donor (EDANS) and acceptor (DABCYL) were labeled at two ends of peptide substrate to perform FRET. Fluorescence measurements were carried out on a fluorescence spectrophotometer. Excitation and emission wavelengths were set at 340 and 490 nm. Inhibitor binding dissociation constant Ki was obtained by nonlinear regression fitting to the plot of initial velocity as a function of inhibitor concentrations based on Morrison equation. The initial velocities were derived from the linear range of reaction curves.

Compound `COc1cccc(S(=O)(=O)N(C[C@H]2CCCO2)C[C@@H](O)[C@H](Cc2ccccc2)NC(=O)[C@@H]2CN(c3ccccc3)C(=O)O2)c1` [(5S)-N-[(1S,2R)-1-Benzyl-2-hydroxy-3-[[(3-methoxyphenyl)-sulfonyl][(R)-(tetrahydro-2-furanyl)methyl]amino]propyl]-2-oxo-3-phenyloxazolidine-5-carboxamide] came in with a Ki of 42 nM.

The compound `COc1cccc(S(=O)(=O)N(C[C@H]2CCCO2)C[C@@H](O)[C@H](Cc2ccccc2)NC(=O)[C@@H]2CN(c3cccc(F)c3)C(=O)O2)c1` [(5S)-N-[(1S,2R)-1-Benzyl-2-hydroxy-3-[[(3-methoxyphenyl)-sulfonyl][(R)-(tetrahydro-2-furanyl)methyl]amino]propyl]-3-(3-fluorophenyl)-2-oxooxazolidine-5-carboxamide] showed a Ki of 150 nM.
